Reference: patent US20070054859A1, “Estrogen receptor-related receptor alpha (ERRalpha) and cartilage formation” (priority 2001, published 2007)

What was measured:
ERRα [1] = molecular target: T1, ERRα (Homo sapiens, UniProt P11474); conditions: Yang et al. (1999); Tremblay et al. (2001a); cited from earlier work
T1 sequence (P11474 1-423): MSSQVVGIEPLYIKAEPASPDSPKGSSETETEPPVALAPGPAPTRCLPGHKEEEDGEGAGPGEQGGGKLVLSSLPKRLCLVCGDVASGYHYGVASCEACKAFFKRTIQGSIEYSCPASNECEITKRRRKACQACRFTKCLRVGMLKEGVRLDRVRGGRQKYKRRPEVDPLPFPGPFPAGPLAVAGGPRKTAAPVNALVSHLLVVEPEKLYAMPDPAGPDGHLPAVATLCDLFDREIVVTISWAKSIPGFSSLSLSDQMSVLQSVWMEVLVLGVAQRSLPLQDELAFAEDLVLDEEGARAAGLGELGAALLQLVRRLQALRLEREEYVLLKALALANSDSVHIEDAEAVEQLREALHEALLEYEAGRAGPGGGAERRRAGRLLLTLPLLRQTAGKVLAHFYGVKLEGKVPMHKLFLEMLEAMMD

ERRα mRNA = ERRα mRNA levels in C5.18 cultures by semi-quantitative RT-PCR, normalised against L32; type: cell-based, rat; conditions: C5.18 cultures without FBS, 10^−9M E2 versus 0.01% ethanol vehicle, day 2; FIG. 8 Panel B
Method: Semi-quantitative RT-PCR was carried out as described in Bonnelye et al. (2001), over the proliferation/differentiation time course of C5.18 cultures treated with Dex. Days 3 and 6 were within the proliferation phase and days 11, 15 and 21 were within the differentiation stage. ERRα expression was normalised against that of the ribosomal probe L32. For comparison, mRNA levels for three chondroblast markers, type II collagen, aggrecan and link protein, were also assessed, normalised against L32.
C5.18 cells were grown in medium with (+) and without (−) fetal bovine serum (FBS). ERRα mRNA levels were determined by semi-quantitative RT-PCR and normalised against ribosomal probe L32.
Similar C5.18 cultures were grown without FBS but in the presence of estrogen (10^−9M E2) or vehicle (0.01% ethanol) (VEH) and mRNA levels were determined as above.

ERRα [2] = molecular target: T1, ERRα; conditions: cited from earlier work

Compound | ERRα antagonist activity (ERRα [1]) | ERRα mRNA levels (ERRα mRNA) | binding to ERRα (ERRα [2])
ClC1=C(Cl)C2(Cl)C3C(Cl)C(Cl)CC3C1(Cl)C2(Cl)Cl (stereo not drawn) [chlordane] | antagonise ERRα activity | – | –
estrogen | – | significantly increased | does not bind
